The target of experiment [1] is CA I (Homo sapiens, UniProt P00915). Conditions: intrinsic, 37°C. As for the experimental part: Intrinsic thermodynamic parameters of all pairs were determined by TSA and ITC (for calculations we used Gibbs energy obtained by TSA and enthalpy from ITC measurements).
Experiment [2] has as its target T1, CA IX (Homo sapiens, UniProt Q16790).
T1 construct: made in house
Put plainly: Intrinsic Gibbs energy of binding (TSA). Conditions: 37°C, Fig. 5.

The test system of experiment [3] is CA IX. Details: method as in earlier work. Conditions: depending on the isozyme, ref Dudutienė et al., 2014, Matulienė et al., 2022, Zakšauskas et al.; cited from earlier work.

SMILES strings stand for the structures.

Chain of CA I (P00915 whole entry): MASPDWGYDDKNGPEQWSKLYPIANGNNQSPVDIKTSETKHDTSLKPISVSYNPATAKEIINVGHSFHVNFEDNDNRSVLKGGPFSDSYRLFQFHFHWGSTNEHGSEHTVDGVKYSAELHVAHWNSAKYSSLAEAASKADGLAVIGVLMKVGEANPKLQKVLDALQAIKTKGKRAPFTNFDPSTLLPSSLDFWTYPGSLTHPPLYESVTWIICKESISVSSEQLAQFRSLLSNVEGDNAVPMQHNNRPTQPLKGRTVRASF

The molecule `CCCSc1c(F)c(F)c(S(N)(=O)=O)c(F)c1F` [VD12-05] returned a ΔHint in experiment [1] of -17.9 kcal/mol. Consider `COC(=O)c1cc(S(N)(=O)=O)c(SC2CCCCC2)cc1Cl` [EA2-3], for which the “intrinsic standard Gibbs energy of binding” value in experiment [2] was -17.9 kcal/mol. Besides, in experiment [3], the “selectivity toward CA IX over remaining isozymes” value is on record as “a hundred- to a million-fold”.
